pKi: −log10 of the molar value.
What was measured:
human MC5 receptor = target: T1, human MC5 receptor (Homo sapiens, UniProt P33032); test: [125I]-NDP-MSH radio-ligand binding, MC5 (h) receptor (recombinant CHO cells); settings: 60 min/37° C.
T1 construct: expressed in transfected cells; host or cells: CHO cells
Experimental: (§1) Determination of binding affinities for MC receptors was performed by [^125I]-[Nle4,D-Phe7]α-MSH ([^125I]-NDP-MSH) radio-ligand binding. In short, murine B16-F1 melanoma cells expressing MC1, but not other MC receptors, were used for binding affinity studies against the murine MC1 receptor (Siegrist et al.; 1988, J. Recept. Res., 8(1-4):323-43). For human MC3, MC4 and MC5 receptor affinities human recombinant CHO cells were used (Schioth et al. 1997, Neuropeptides 31:565-71, 1997). Cells were suspended in HEPES buffer and by use of microwell plates radio-ligands, as well as test compound, in the concentration range of 10^−10 to 10^−6 were added. After incubation at 37° C. (22° C. for the MC1 receptor assay) separation of bound and free [^125I]-NDP-MSH was done by multiple washings with buffer.
(§2) The results were expressed as a percent of control specific binding obtained in the presence of the test compounds. The IC50 values (concentration causing a half-maximal inhibition of control specific binding) and Hill coefficients (nH) were determined by non-linear regression analysis of the competition curves using Hill equation curve fitting. The inhibition constants (Ki) were calculated from the Cheng Prusoff equation (Ki=IC50/(1+(L/KD)), where L=concentration of radio-ligand in the assay, and KD=affinity of the radio-ligand for the receptor).

human MC3 receptor = target: T2, human MC3 receptor (Homo sapiens, UniProt P41968); test: [125I]-NDP-MSH radio-ligand binding, MC3 (h) receptor (recombinant CHO cells); settings: 60 min/37° C.
T2 construct: expressed in transfected cells; host or cells: CHO cells
T2 sequence (P41968 whole entry): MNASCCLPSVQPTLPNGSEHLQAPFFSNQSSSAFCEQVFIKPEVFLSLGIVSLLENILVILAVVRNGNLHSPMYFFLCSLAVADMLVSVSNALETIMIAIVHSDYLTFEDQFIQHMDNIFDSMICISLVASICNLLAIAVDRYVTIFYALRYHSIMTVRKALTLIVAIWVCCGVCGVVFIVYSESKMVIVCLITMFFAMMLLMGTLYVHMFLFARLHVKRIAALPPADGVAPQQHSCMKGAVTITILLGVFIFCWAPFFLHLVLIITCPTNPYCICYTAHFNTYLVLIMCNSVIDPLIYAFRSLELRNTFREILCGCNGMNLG
Experimental: as §1, §2

T1 sequence (P33032 whole entry): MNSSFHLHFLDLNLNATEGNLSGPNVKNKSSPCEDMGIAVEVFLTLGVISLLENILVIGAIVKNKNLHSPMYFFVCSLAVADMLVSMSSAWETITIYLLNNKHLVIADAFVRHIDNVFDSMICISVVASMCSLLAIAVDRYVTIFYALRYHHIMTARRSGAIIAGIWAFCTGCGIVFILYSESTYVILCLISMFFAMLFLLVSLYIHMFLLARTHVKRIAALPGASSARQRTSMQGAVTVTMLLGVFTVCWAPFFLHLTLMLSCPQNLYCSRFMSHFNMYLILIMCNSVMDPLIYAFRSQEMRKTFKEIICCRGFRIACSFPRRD

N=C(N)NN=CC=Cc1cccn1-c1ccc(Cl)cc1 [Compound 1, [1-(4-chlorophenyl)-1H-pyrrol-2-yl-allylideneamino]guanidinium acetate] was tested, and the pKi (human MC5 receptor) was < 6.00 and the pKi (human MC3 receptor) was < 6.00.

For N=C(N)NN=CC=Cc1cccn1-c1ccccc1[N+](=O)[O-] [Compound 2, [1-(2-nitrophenyl)-1H-pyrrol-2-yl-allylideneamino]guanidinium acetate], the pKi (human MC5 receptor) was < 6.00 and the pKi (human MC3 receptor) was < 6.00.

For N=C(N)NN=CC=Cc1cccn1-c1ccccc1Br [Compound 3, [1-(2-bromophenyl)-1H-pyrrol-2-yl-allylideneamino]guanidinium acetate], the pKi (human MC5 receptor) was < 6.00 and the pKi (human MC3 receptor) was 6.20.

From patent US8058306B2, “Phenyl pyrrole aminoguanidine derivatives” (Action Pharma A/S, priority 2006, dated 2011)
